From patent publication US11634447B2 (priority 2012, dated 2023)

System: bacterial strain LF82 binding to the glycoprotein BSA-(Mannose)3
Assay: Bacterial Binding Assay (BBA)
Type: cell-based, Escherichia coli
Settings: read-out: Bacterial Binding Assay IC50, LF82/Luciferase strain binding to BSA-(Man)3 coated plates, luminescence
Procedure, shortened: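 Inhibition of LF82/luciferase E. coli adhesion is read as luminescence after washing off unbound cells. Compound and bacteria (10^7 per well) are co-incubated 40-75 min at room temperature on wells coated with 0.5-2 μg/mL BSA-(Man)3, with BSA-only wells as background; IC50 values derived.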

SMILES | IC50
OC[C@H]1O[C@H](C#Cc2cc(F)c(C#C[C@H]3O[C@H](CO)[C@@H](O)[C@H](O)[C@@H]3O)cc2F)[C@@H](O)[C@@H](O)[C@@H]1O [Compound 88, (2R,3S,4R,5S,6R)-2-[2-[2,5-difluoro-4-[2-[(2R,3S,4R,5S,6R)-3,4,5-trihydroxy-6-(hydroxymethyl)tetrahydropyran-2-yl]ethynyl]phenyl]ethynyl]-6-(hydroxymethyl)tetrahydropyran-3,4,5-triol] | 132 nM
OC[C@H]1O[C@H](C#Cc2ccc3c(c2)C(CO)(CO)c2cc(C#C[C@H]4O[C@H](CO)[C@@H](O)[C@H](O)[C@@H]4O)ccc2-3)[C@@H](O)[C@@H](O)[C@@H]1O [Compound 217, (2R,3S,4R,5S,6R)-2-[2-[9,9-Bis(hydroxymethyl)-7-[2-[(2R,3S,4R,5S,6R)-3,4,5-trihydroxy-6-(hydroxymethyl)tetrahydropyran-2-yl]ethynyl]fluoren-2-yl]ethynyl]-6-(hydroxymethyl)tetrahydropyran-3,4,5-triol] | 20 nM
OC[C@H]1O[C@H](C#Cc2ccc(C#C[C@H]3O[C@H](CO)[C@@H](O)[C@H](O)[C@@H]3O)c3ccccc23)[C@@H](O)[C@@H](O)[C@@H]1O [Compound 136, (2R,3S,4R,5S,6R)-2-(hydroxymethyl)-6-[2-[4-[2-[(2R,3S,4R,5S,6R)-3,4,5-trihydroxy-6-(hydroxymethyl)tetrahydropyran-2-yl]ethynyl]-1-naphthyl]ethynyl]tetrahydropyran-3,4,5-triol] | 145 nM
CC(C)C1(O)c2cc(C#C[C@H]3O[C@H](CO)[C@@H](O)[C@H](O)[C@@H]3O)ccc2-c2ccc(C#C[C@H]3O[C@H](CO)[C@@H](O)[C@H](O)[C@@H]3O)cc21 [Compound 165, (2R,3S,4R,5S,6R)-2-[2-[9-hydroxy-9-isopropyl-7[2-[(2R,3S,4R,5S,6R)-3,4,5-trihydroxy-6-(hydroxymethyl)tetrahydropyran-2-yl]ethynyl]fluoren-2-yl]ethynyl]-6-(hydroxymethyl)tetrahydropyran-3,4,5-triol] | 2.4 nM
OC[C@H]1O[C@H](C#Cc2cnc(C#C[C@H]3O[C@H](CO)[C@@H](O)[C@H](O)[C@@H]3O)cn2)[C@@H](O)[C@@H](O)[C@@H]1O [Compound 135] | 580 nM
CN(C)CCN(C)C1c2cc(C#C[C@H]3O[C@H](CO)[C@@H](O)[C@H](O)[C@@H]3O)ccc2-c2ccc(C#C[C@H]3O[C@H](CO)[C@@H](O)[C@H](O)[C@@H]3O)cc21 [Compound 213, (2R,3S,4R,5S,6R)-2-[2-[9-[2-(dimethylamino)ethyl-methyl-amino]-7-[2-[(2R,3S,4R,5S,6R)-3,4,5-trihydroxy-6-(hydroxymethyl)tetrahydropyran-2-yl]ethynyl]-9H-fluoren-2-yl]ethynyl]-6-(hydroxymethyl)tetrahydropyran-3,4,5-triol] | 3.7 nM
CC(C)OC(=O)c1c(C#C[C@H]2O[C@H](CO)[C@@H](O)[C@H](O)[C@@H]2O)ccc2c1C1(CCNCC1)c1cc(C#C[C@H]3O[C@H](CO)[C@@H](O)[C@H](O)[C@@H]3O)ccc1-2 [Compound 208] | 0.03 nM
OCC(O)CC1(O)c2cc(C#C[C@H]3O[C@H](CO)[C@@H](O)[C@H](O)[C@@H]3O)ccc2-c2ccc(C#C[C@H]3O[C@H](CO)[C@@H](O)[C@H](O)[C@@H]3O)cc21 (stereo partly drawn) [Compound 196, (2R,3S,4R,5S,6R)-2-[2-[9-(2,3-dihydroxypropyl)-9-hydroxy-7-[2-[(2R,3S,4R,5S,6R)-3,4,5-trihydroxy-6-(hydroxymethyl)tetrahydropyran-2-yl]ethynyl]fluoren-2-yl]ethynyl]-6-(hydroxymethyl)tetrahydropyran-3,4,5-triol] | 28 nM
CCn1c2ccc(C#C[C@H]3O[C@H](CO)[C@@H](O)[C@H](O)[C@@H]3O)cc2c2cc(C#C[C@H]3O[C@H](CO)[C@@H](O)[C@H](O)[C@@H]3O)ccc21 [Compound 107, (2R,3S,4R,5S,6R)-2-[2-[9-ethyl-6-[2-[(2R,3S,4R,5S,6R)-3,4,5-trihydroxy-6-(hydroxymethyl)tetrahydropyran-2-yl]ethynyl]carbazol-3-yl]ethynyl]-6-(hydroxymethyl)tetrahydropyran-3,4,5-triol] | 13 nM
OC[C@H]1O[C@H](c2cccc(-c3ccc(-c4cccc([C@H]5O[C@H](CO)[C@@H](O)[C@H](O)[C@@H]5O)c4)cc3)c2)[C@@H](O)[C@@H](O)[C@@H]1O [Compound 139, (2R,3S,4R,5S,6R)-2-(hydroxymethyl)-6-[3-[4-[3-[(2R,3S,4R,5S,6R)-3,4,5-trihydroxy-6-(hydroxymethyl)tetrahydropyran-2-yl]phenyl]phenyl]phenyl]tetrahydropyran-3,4,5-triol] | 46 nM
CC(C)(c1ccc(C#C[C@H]2O[C@H](CO)[C@@H](O)[C@H](O)[C@@H]2O)cc1)c1ccc(C#C[C@H]2O[C@H](CO)[C@@H](O)[C@H](O)[C@@H]2O)cc1 [Compound 122, (2R,3S,4R,5S,6R)-2-(hydroxymethyl)-6-[2-[4-[1-methyl-1-[4-[2-[(2R,3S,4R,5S,6R)-3,4,5-trihydroxy-6-(hydroxymethyl)tetrahydropyran-2-yl]ethynyl]phenyl]ethyl]phenyl]ethynyl]tetrahydropyran-3,4,5-triol] | 29 nM
CC(C)c1cc(C#C[C@H]2O[C@H](CO)[C@@H](O)[C@H](O)[C@@H]2O)ccc1C#C[C@H]1O[C@H](CO)[C@@H](O)[C@H](O)[C@@H]1O [Compound 103, (2R,3S,4R,5S,6R)-2-(hydroxymethyl)-6-[2-[3-isopropyl-4-[2-[(2R,3S,4R,5S,6R)-3,4,5-trihydroxy-6-(hydroxymethyl)tetrahydropyran-2-yl]ethynyl]phenyl]ethynyl]tetrahydropyran-3,4,5-triol] | 7.4 nM
CC(C)Oc1cc(C#C[C@H]2O[C@H](CO)[C@@H](O)[C@H](O)[C@@H]2O)ccc1C#C[C@H]1O[C@H](CO)[C@@H](O)[C@H](O)[C@@H]1O [Compound 83, (2R,3S,4R,5S,6R)-2-(hydroxymethyl)-6-[2-[3-isopropoxy-4-[2-[(2R,3S,4R,5S,6R)-3,4,5-trihydroxy-6-(hydroxymethyl)tetrahydropyran-2-yl]ethynyl]phenyl]ethynyl]tetrahydropyran-3,4,5-triol] | 3.8 nM
OC[C@H]1O[C@H](C#Cc2ccc3c(c2)C2(CCNCC2)c2cc(C#C[C@H]4O[C@H](CO)[C@@H](O)[C@H](O)[C@@H]4O)ccc2-3)[C@@H](O)[C@@H](O)[C@@H]1O [Compound 192, (2R,3S,4R,5S,6R)-2-(Hydroxymethyl)-6-[2-[7-[2-[(2R,3S,4R,5S,6R)-3,4,5-trihydroxy-6-(hydroxymethyl)tetrahydropyran-2-yl]ethynyl]spiro[fluorene-9,4piperidine]-2-yl]ethynyl]tetrahydropyran-3,4,5-triol] | 3.2 nM
Cc1cc(-c2cccc(-c3ccc([C@H]4O[C@H](CO)[C@@H](O)[C@H](O)[C@@H]4O)c(C)c3)n2)ccc1[C@H]1O[C@H](CO)[C@@H](O)[C@H](O)[C@@H]1O [Compound 154, (2R,3S,4R,5S,6R)-2-(hydroxymethyl)-6-[2-methyl-4-[6-[3-methyl-4-[(2R,3S,4R,5S,6R)-3,4,5-trihydroxy-6-(hydroxymethyl)tetrahydropyran-2-yl]phenyl]-2-pyridyl]phenyl]tetrahydropyran-3,4,5-triol] | 44 nM
